Assays:
[1] = system: Huh-7; assay: In vitro growth inhibition of Huh-7 cells; assay type: cell-based; conditions: Homo sapiens, FGFR3+++, FGFR4 +++
Protocol: (§1) Adherent cells were digested with 0.25% trypsin-EDTA (Gibco). Suspension culture cells were collected by centrifugation (1700 rpm, 3 minutes). The supernatant was discarded and the cells were counted. According to each cell growth cycle, different concentrations of cells were prepared (5˜10×10^4 cells per ml), and inoculated to 96-well plates (Corning), with 100 μl per well, and incubated overnight at 37° C., 5% CO2. The next day, the test compound was added to the cultured cells (2 wells in parallel). The final concentration of the solvent was less than 1/1,000. The cells were further cultured for 3 to 5 days and assayed by MTT.
(§2) The MTT test reagent was a Dojindo CCK8 kit and the Microplate Reader was a THERMO […] FC instrument.
(§3) The adherent cells were taken out from the cell culture medium, and immediately added to a freshly prepared complete medium containing 10% CCK8 (5% FBS), 100 ul per hole. The suspended cells were directly added to a CCK8 reagent until reaching a final concentration of 10% and cultured for 1 to 4 hours. When a dark yellow color could be observed in the solvent control wells, the absorbance value at OD450 nm was measured and the cell growth rate was calculated according to the following formula: Cell Growth Rate (%)=100×(T−T0)/(C−T0)
(§4) T=optical density of drug-treated cell wells−optical density of blank control wells; T0=optical density of cell wells before drug treatment−optical density of blank control wells; C=optical density of solvent control wells−optical density of blank control wells. […] The experiments were repeated 1 to 3 times and a statistical analysis of data was conducted.
(§5) Mutations in the FGFR1-4 gene often occur in different types of cancer patients. In order to test the growth inhibition activity of the present compound against tumor cells expressing different FGFR variants, tumor cell lines expressing representative FGFR1-4 were selected for further determining the activity of compounds 25, 66, 38 and 95 of the present invention. BGJ398, a selective inhibitor of FGFR1-4, was used as the control compound. The specific test method is the same as test example 1.

[2] = system: SNU-16; assay: In vitro growth inhibition of SNU-16 cells; assay type: cell-based; conditions: Homo sapiens, FGFR2 amp
Protocol: as §1, §2, §3, §4, §5

[3] = system: KCL-22 (BCR-ABL); assay: In vitro growth inhibition of KCL-22 tumor cells (MTT/CCK8); assay type: cell-based, Human; conditions: Homo sapiens, KCL-22; in vitro growth inhibition (or induction of apoptosis), cells cultured 3 to 5 days, MTT (CCK8); read-out: IC50 KCL-22 (BCR-ABL)
[4] = system: MFM-223; assay: In vitro growth inhibition of MFM-223 cells; assay type: cell-based; conditions: Homo sapiens, PI3KCA H1047R, FGFR1 amp, FGFR2 amp
Protocol: as §1, §2, §3, §4, §5

[5] = system: Hep3B2 (FGFR3/4+++); assay: In vitro growth inhibition of Hep3B2 tumor cells (MTT/CCK8); assay type: cell-based, Human; conditions: Homo sapiens, Hep3B; in vitro growth inhibition (or induction of apoptosis), cells cultured 3 to 5 days, MTT (CCK8); read-out: IC50 Hep3B2 (FGFR3/4+++)
[6] = system: RT112/84; assay: In vitro growth inhibition of RT112/84 cells; assay type: cell-based; conditions: Homo sapiens, FGFR3-TACC3
Protocol: as §1, §2, §3, §4, §5

[7] = system: DMS114; assay: In vitro growth inhibition of DMS114 cells; assay type: cell-based; conditions: Homo sapiens, DMS-114, FGFR1 amp
Protocol: as §1, §2, §3, §4, §5

[8] = system: Kasumi-1 (KIT N822K); assay: In vitro growth inhibition of Kasumi-1 tumor cells (MTT/CCK8); assay type: cell-based, Human; conditions: Homo sapiens, Kasumi 1; in vitro growth inhibition (or induction of apoptosis), cells cultured 3 to 5 days, MTT (CCK8); read-out: IC50 Kasumi-1 (KIT N822K)
[9] = system: Karpas 299 (NPM-ALK); assay: In vitro growth inhibition of Karpas 299 tumor cells (MTT/CCK8); assay type: cell-based, Human; conditions: Homo sapiens, KARPAS-299; in vitro growth inhibition (or induction of apoptosis), cells cultured 3 to 5 days, MTT (CCK8); read-out: IC50 Karpas 299 (NPM-ALK)
[10] = system: H1581 (FGFR1 amp); assay: In vitro growth inhibition of H1581 tumor cells (MTT/CCK8); assay type: cell-based, Human; conditions: Homo sapiens, NCI-H1581; in vitro growth inhibition (or induction of apoptosis), cells cultured 3 to 5 days, MTT (CCK8); read-out: IC50 H1581 (FGFR1 amp)
[11] = system: AN3-CA; assay: In vitro growth inhibition of AN3-CA cells; assay type: cell-based; conditions: Homo sapiens, FGFR2 mutant
Protocol: as §1, §2, §3, §4, §5

[12] = system: A375; assay: In vitro growth inhibition of A375 cells; assay type: cell-based; conditions: Homo sapiens, A-375, BRAF V600E, FGFR2 mutant
Protocol: as §1, §2, §3, §4, §5

[13] = system: KATO III (FGFR2 amp); assay: In vitro growth inhibition of KATO III tumor cells (MTT/CCK8); assay type: cell-based, Human; conditions: Homo sapiens, KATO III; in vitro growth inhibition (or induction of apoptosis), cells cultured 3 to 5 days, MTT (CCK8); read-out: IC50 KATO III (FGFR2 amp)
[14] = system: MDA-MB-453; assay: In vitro growth inhibition of MDA-MB-453 cells; assay type: cell-based; conditions: Homo sapiens, PI3KCA H1047R, FGFR4+++/Y367C
Protocol: as §1, §2, §3, §4, §5

[15] = system: H1703 (PDGFRa amp); assay: In vitro growth inhibition of H1703 tumor cells (MTT/CCK8); assay type: cell-based, Human; conditions: Homo sapiens, NCI-H1703; in vitro growth inhibition (or induction of apoptosis), cells cultured 3 to 5 days, MTT (CCK8); read-out: IC50 H1703 (PDGFRa amp)
[16] = system: Cal-120; assay: In vitro growth inhibition of Cal-120 cells; assay type: cell-based; conditions: Homo sapiens, FGFR1 amp
Protocol: as §1, §2, §3, §4, §5

[17] = system: JIMT-1; assay: In vitro growth inhibition of JIMT-1 cells; assay type: cell-based; conditions: Homo sapiens, FGFR1 amp, HER2 amp, PI3KCA C420R
Protocol: as §1, §2, §3, §4, §5

[18] = system: JHH-7; assay: In vitro growth inhibition of JHH-7 cells; assay type: cell-based; conditions: Homo sapiens, JHH7, FGFR3+++, FGFR4 +++
Protocol: as §1, §2, §3, §4, §5

[19] = system: MOLM-13 (FLT3-ITD); assay: In vitro growth inhibition of MOLM-13 tumor cells (MTT/CCK8); assay type: cell-based, Human; conditions: Homo sapiens, MOLM-13; in vitro growth inhibition (or induction of apoptosis), cells cultured 3 to 5 days, MTT (CCK8); read-out: IC50 MOLM-13 (FLT3-ITD)
[20] = system: RS4:11; assay: In vitro growth inhibition of FLT3 wild type overexpressing cells RS4:11; assay type: cell-based; conditions: Homo sapiens, cells over expressing FLT3 wild-type
Protocol: as §1, §2, §3, §4
(§6) The present compounds which has a high growth inhibition activity on tumor cells positive expressing FLT3-ITD were selected for the determination of IC50 concentration on FLT3 wild tyoverexpressing cells RS4:11 and FLT3 wild-type normal expressing cells Jurkat. The specific test method is the same as that of test example 1.

[21] = system: Jurkat; assay: In vitro growth inhibition of FLT3 wild-type normal expressing cells Jurkat; assay type: cell-based; conditions: Homo sapiens, cells normally expressing FLT3 wild-type
Protocol: as §1, §2, §3, §4, §6

[22] = system: Hep G2; assay: In vitro growth inhibition of Hep G2 cells; assay type: cell-based; conditions: Homo sapiens, HepG2, FGFR3+++, FGFR4 +++
Protocol: as §1, §2, §3, §4, §5

[23] = system: PLC/PRF/5; assay: In vitro growth inhibition of PLC/PRF/5 cells; assay type: cell-based; conditions: Homo sapiens, FGFR3+++, FGFR4 +++
Protocol: as §1, §2, §3, §4, §5

| SMILES | IC50 [3] [nM] | IC50 [5] [nM] | IC50 [8] [nM] | IC50 [9] [nM] | IC50 [10] [nM] | IC50 [13] [nM] | IC50 [15] [nM] | IC50 [19] [nM] | IC50 [20] [nM] | IC50 [21] [nM] | further results |
| --- | --- | --- | --- | --- | --- | --- | --- | --- | --- | --- | --- |
| CCN1CCN(c2ccc(Nc3cc(N(C)C(=O)Nc4c(Cl)c(OC)cc(OC)c4Cl)ncn3)cc2)CC1 [BGJ398, reference compound] | > 1000 | 38.9 | > 1000 | > 1000 | 6.97 | 0.461 | > 1000 |  |  |  | IC50 [1]: 30.9 nM; IC50 [2]: 2.18 nM; IC50 [4]: > 1000 nM; IC50 [6]: 8.12 nM; IC50 [7]: 6.97 nM; IC50 [11]: 62.1 nM; IC50 [12]: > 1000 nM; IC50 [14]: > 1000 nM; IC50 [16]: > 1000 nM; IC50 [17]: > 1000 nM; IC50 [18]: 31.8 nM |
| COc1cc2nccc(Oc3ccc(NC(=O)Nc4cc(C(C)(C)C)n[nH]4)c(Cl)c3)c2cc1C(N)=O [Compound 25, 4-{4-[3-(5-tert-butyl-2H-pyrazol-3-yl)-ureido]-3-chloro-phenoxy}-7-methoxyquinolin-6-carboxamide] | 16.4 | 14.2 | 44 | 600 | 9.7 | 0.24 | 13.5 | 19.1 |  |  | IC50 [22]: 127 nM; IC50 [1]: 7.12 nM; IC50 [2]: 1.95 nM; IC50 [4]: 21.6 nM; IC50 [6]: 31.5 nM; IC50 [7]: 15.6 nM; IC50 [11]: 4.95 nM; IC50 [12]: 129 nM; IC50 [14]: 309 nM; IC50 [16]: 64.7 nM; IC50 [23]: 2.95 nM; IC50 [17]: 467 nM; IC50 [18]: 4.88 nM |
| COc1cc2nccc(Oc3ccc(NC(=O)Nc4cc(C(C)(C)C)n[nH]4)cc3C)c2cc1C(N)=O [Compound 35, 4-{4-[3-(5-tert-butyl-2H-pyrazol-3-yl)-ureido]-2-methyl-phenoxy}-7-methoxyquinolin-6-carboxamide] | 16.8 | 166 | 7.32 | 393 | 105 | 4.45 | 106 | < 0.05 | > 1000 | 429 |  |
| COc1cc2nccc(Oc3ccc(NC(=O)Nc4cc(C(C)(C)C)n[nH]4)cc3Cl)c2cc1C(N)=O [Compound 36, 4-{4-[3-(5-tert-butyl-2H-pyrazol-3-yl)-ureido]-2-chloro-phenoxy}-7-methoxyquinolin-6-carboxamide] | 31.5 | 78.9 | 70.8 | 179 | 65.7 | 2.62 | 227 | < 0.05 | 750 | 535 |  |
| COc1cc2nccc(Oc3ccc(NC(=O)Nc4cc(C(C)(C)C)n[nH]4)c(Cl)c3Cl)c2cc1C(N)=O [Compound 37, 4-{4-[3-(5-tert-butyl-2H-pyrazol-3-yl)-ureido]-2,3-dichloro-phenoxy}-7-methoxyquinolin-6-carboxamide] | 0.498 | 9.6 | 2.05 | 52.3 | 4.73 | 0.19 | 6.44 | 0.97 | 139 | 408 |  |
| CNC(=O)c1cc2c(Oc3ccc(NC(=O)Nc4cc(C(C)(C)C)n[nH]4)cc3C)ccnc2cc1OC [Compound 52, 4-{4-[3-(5-tert-butyl-2H-pyrazol-3-yl)-ureido]-2-methyl-phenoxy}-7-methoxyquinolin-6-carboxylate acid methylamide] | 7.11 | 175 | 3.83 | 203 | 107 | 3.28 | 62.4 | 0.06 | > 1000 | > 1000 |  |

Now from value to compound, other results behind:

| IC50 [3] [nM] | IC50 [5] [nM] | IC50 [8] [nM] | IC50 [9] [nM] | IC50 [10] [nM] | IC50 [13] [nM] | IC50 [15] [nM] | IC50 [19] [nM] | IC50 [20] [nM] | SMILES | IC50 [21] [nM] | further results |
| --- | --- | --- | --- | --- | --- | --- | --- | --- | --- | --- | --- |
| 18.7 | 45.6 | 35.1 | 142 | 19.5 | 2.93 | 17.5 | < 0.05 | 370 | COc1cc2nccc(Oc3ccc(NC(=O)Nc4cc(C(C)(C)C)on4)cc3Cl)c2cc1C(N)=O [Compound 8, 4-{4-[3-(5-tert-butyl-isoxazol-3-yl)-ureido]-2-chloro-phenoxy}-7-methoxyquinolin-6-carboxamide] | 288 |  |
| 35.8 | 47.6 | 144 | 352 | 9.59 | 1.39 | 18.5 | < 0.05 | 750 | COc1cc2nccc(Oc3ccc(NC(=O)Nc4cc(C(C)(C)C)on4)cc3F)c2cc1C(N)=O [Compound 9, 4-{4-[3-(5-tert-butyl-isoxazol-3-yl)-ureido]-2-fluoro-phenoxy}-7-methoxyquinolin-6-carboxamide] | 409 |  |
| > 1000 | 346 | > 1000 | 764 | 493 | 31 | 83.5 | 0.99 | > 1000 | COc1cc2nccc(Oc3ccc(NC(=O)Nc4cc(C(C)(C)C)on4)cn3)c2cc1C(N)=O [Compound 24, 4-{5-[3-(5-tert-butyl-isoxazol-3-yl)-ureido]-pyridin-2-yloxy}-7-methoxyquinolin-6-carboxamide] | 572 |  |
